One experiment concerns the target T1, hCOX-1 (Homo sapiens, UniProt P23219).
T1 construct: using arachidonic acid as substrate for hCOX-1 from human platelet microsomes; from tissue; host or cells: microsomes of human platelets isolated from buffy coats
The experiment in a line: hCOX-1 activity, TMPD oxidation, human platelet microsomes, arachidonic acid substrate. The experiment is classed as biochemical. The settings on record: for inhibition at 25 µM: read-out: % enzymatic inhibition of hCOX-1 at 25 μM, compounds precipitated at higher concentrations. On the procedure:
Human platelets were isolated by centrifugation from buffy coats obtained from the Centro de Transfusion de Galicia (Santiago de Compostela, Spain) and prepared as described.
The upper layer obtained in this centrifugation, containing platelet rich plasma, was gently removed and centrifuged at 850 g for 20 min at 4 °C in a centrifuge (J2-MI, Beckman Instruments, Inc., Palo Alto, California, USA). The platelet pellet was recovered, resuspended with washing buffer, and centrifuged again at 850 g for 20 min at 4 °C. To prepare human platelet microsomes, the resultant platelet pellet of the above centrifugation was resuspended in 7 mL of sodium phosphate buffer (10 mM, pH 7.4), sonicated at 50 W for 50 s (5 pulses of 10 s), and centrifuged at 850 g for 20 min at 4 °C in a refrigerated centrifuge. The pellet was discarded and the supernatant was subsequently centrifuged at 10 000 g for 10 min at 4 °C in the same centrifuge. The pellet obtained in this centrifugation was discarded and the supernatant was finally centrifuged at 100 000 g for 1 h at 4 °C in an ultracentrifuge (Beckman Instruments, Inc., Palo Alto, California, USA).
The biological evaluation of the test drugs on hCOX-1 activity (bisdioxygenase and peroxidase reactions) was investigated by measuring their effects on the oxidation of N, N, N’, N’-tetramethyl-p-phenylenediamine (TMPD) to N, N, N’, N’-tetramethyl-p-phenylene-diimine, using arachidonic acid as substrate for hCOX-1 from human platelet microsomes (obtained as described in the above paragraph). The formation of N, N, N’, N’-tetramethyl-p-phenylenediimine (a coloured compound) from N, N, N’, N’-tetramethyl-p-phenylenediamine catalyzed by COX can be detected spectrophotometrically at 600 nm. In this study, hCOX activity was evaluated using a spectrophotometric method. Briefly, 0.1 mL of Tris–HCl buffer (100 mM, pH 8) containing […], […], various concentrations of the test drugs, and appropriate amounts of hCOX-1 (0.08 A600 U/min) were incubated for short periods of time (3–5 min) to avoid a notable loss of COX activity at 37 °C in a flat-bottom 96-well microtest plate (BD Biosciences, Franklin Lakes, NJ, USA) placed in the dark multimode microplate reader chamber. After this incubation period, the reaction was started by adding (final concentration) […] and the formation of N, N,N’,N’-tetramethyl-p-phenylenediimine from TMPD, i.e., the increase in absorbance at 600 nm was measured at 37 °C in a multi-mode microplate reader (Fluostar Optima, BMG Labtech GmbH, Offenburg, Germany) for 25 s, aperiod in which the absorbance increased linearly from the beginning. The specific absorbance (used to obtain the final results) was calculated after subtraction of the background absorbance generated in wells containing a blank solution, i.e., all components except the COX isoform, which were replaced by a Tris–HCl buffer solution.
Control experiments were carried out simultaneously by replacing the test drugs (new compounds and reference inhibitors) with appropriate dilutions of the vehicles. In addition, the possible capacity of the above test drugs to modify the absorbance of the reaction mixture due to non-enzymatic inhibition (e.g., for directly reacting with TMPD) was determined by adding these drugs to solutions containing only TMPD in a Tris–HCl buffer solution.

The target in experiment [1] is T2, hMAO-B (Homo sapiens, UniProt P27338).
T2 construct: purchased Sigma-Aldrich; host or cells: insect cells (BTI-TN-5B1-4) infected with recombinant baculovirus; microsomal preparation
T2 sequence (P27338 1-520): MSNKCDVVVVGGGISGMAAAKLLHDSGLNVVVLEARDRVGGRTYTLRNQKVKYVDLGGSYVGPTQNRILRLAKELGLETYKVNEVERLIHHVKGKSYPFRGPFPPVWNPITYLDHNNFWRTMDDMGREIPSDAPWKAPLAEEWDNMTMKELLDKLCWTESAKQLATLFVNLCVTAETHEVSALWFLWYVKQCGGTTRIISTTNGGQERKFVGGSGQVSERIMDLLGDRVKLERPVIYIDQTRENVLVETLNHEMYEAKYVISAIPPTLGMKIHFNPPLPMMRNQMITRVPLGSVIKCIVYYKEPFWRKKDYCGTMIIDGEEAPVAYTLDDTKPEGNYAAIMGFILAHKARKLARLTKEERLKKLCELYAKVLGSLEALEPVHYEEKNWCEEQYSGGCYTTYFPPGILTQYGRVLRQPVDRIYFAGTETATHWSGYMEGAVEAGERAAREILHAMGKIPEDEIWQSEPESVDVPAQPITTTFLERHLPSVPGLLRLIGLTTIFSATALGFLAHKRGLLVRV
Put plainly: hMAO-B enzymatic inhibition, Amplex Red MAO assay (H2O2 from p-tyramine). The experiment is classed as biochemical. From the text:
(§1) The biological evaluation on hMAO activity was investigated by measuring effects on the production of hydrogen peroxide (H2O2) from p-tyramine, using the Amplex® Red MAO assay kit and microsomal isoforms prepared from insect cells (BTI-TN-5B1-4) infected with recombinant baculovirus containing cDNA inserts for hMAO-A and hMAO-B. The production of H2O2 catalysed by the MAO isoforms was detected using 10-acetyl-3,7-dihydroxyphenoxazine (Amplex® Red reagent), a non fluorescent and highly sensitive probe that reacts with H2O2 in the presence of horseradish peroxidase to produce a fluorescent product, resorufin.
The selected compounds were dissolved in DMSO (Sigma-Aldrich, Alcobendas, Madrid, Spain) to prepare 10 mM stock solutions, which were kept for storage at −20 °C. Percentage of DMSO used in the experiments was never higher than 1%. Human recombinant MAO isoforms (native enzymes), used in the experiments, were purchased from Sigma-Aldrich (Alcobendas, Madrid, Spain). Test compounds were acquired from Sigma-Aldrich and Vitro S.A. (Madrid, Spain).
After this incubation period, the reaction was started by adding (final concentrations) 200 μM Amplex® Red reagent, 1 U/mL horseradish peroxidase and 1 mMp-tyramine. […] Control experiments were carried out simultaneously by replacing the test drugs (new compounds and reference inhibitor) with appropriate dilutions of the vehicles. In addition, the possible capacity of the above test drugs to modify the fluorescence generated in the reaction mixture due to non-enzymatic inhibition (e.g., for directly reacting with Amplex® Red reagent) was determined by adding these drugs to solutions containing only the Amplex® Red reagent in a sodium phosphate buffer. To determine the kinetic parameters of hMAO (Km and Vmax), the corresponding enzymatic activity was evaluated (under the experimental conditions described above) in the presence of a number (a wide range) of p-tyramine concentrations.
The specific fluorescence emission (used to obtain the final results) was calculated after subtraction of the background activity, which was determined from wells containing all components except the hMAO, which were replaced by a sodium phosphate buffer solution.

Experiment [2] relates to hMAO-B. On the set-up: method as in PMID 19948168, PMID 14965331. Conditions: cited from earlier work.
For another experiment, the target named is T3, hMAO-A (Homo sapiens, UniProt P21397).
T3 construct: purchased Sigma-Aldrich; host or cells: insect cells (BTI-TN-5B1-4) infected with recombinant baculovirus; microsomal preparation
T3 sequence (P21397 1-527): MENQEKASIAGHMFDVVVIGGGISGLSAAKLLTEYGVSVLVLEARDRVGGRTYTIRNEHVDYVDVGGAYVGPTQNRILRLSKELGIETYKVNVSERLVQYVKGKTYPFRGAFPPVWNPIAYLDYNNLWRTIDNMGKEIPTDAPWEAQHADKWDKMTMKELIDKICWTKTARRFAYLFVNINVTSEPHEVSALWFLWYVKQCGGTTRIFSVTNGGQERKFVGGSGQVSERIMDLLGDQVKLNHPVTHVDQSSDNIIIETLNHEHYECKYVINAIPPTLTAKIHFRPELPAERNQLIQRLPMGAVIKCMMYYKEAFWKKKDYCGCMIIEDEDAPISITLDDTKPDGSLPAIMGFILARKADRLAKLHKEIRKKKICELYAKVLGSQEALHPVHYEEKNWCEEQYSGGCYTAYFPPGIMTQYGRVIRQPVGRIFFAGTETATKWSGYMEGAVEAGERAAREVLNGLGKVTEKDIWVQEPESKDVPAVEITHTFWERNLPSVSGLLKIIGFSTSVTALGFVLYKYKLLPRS
Put plainly: hMAO-A enzymatic inhibition, Amplex Red MAO assay (H2O2 from p-tyramine). The experiment is classed as biochemical.
Text: as §1, with “resorufin. […]” for “resorufin.”
After this incubation period, the reaction was started by adding (final concentrations) 200 μM Amplex® Red reagent, 1 U/mL horseradish peroxidase and 1 mMp-tyramine. […] In addition, the possible capacity of the above test drugs to modify the fluorescence generated in the reaction mixture due to non-enzymatic inhibition (e.g., for directly reacting with Amplex® Red reagent) was determined by adding these drugs to solutions containing only the Amplex® Red reagent in a sodium phosphate buffer. To determine the kinetic parameters of hMAO (Km and Vmax), the corresponding enzymatic activity was evaluated (under the experimental conditions described above) in the presence of a number (a wide range) of p-tyramine concentrations. […]

[3] abbreviates: Table 3, mean ± S.E.M., n = 3, rational assays selected by the modeling, read-out: IC50 hCOX-1.
The mark [4] stands for this setting: highest concentration tested 100 μM, read-out: IC50 hCOX-1 (rounded).
Where [5] appears, read: Table 3, mean ± S.E.M., n = 3, control assays, read-out: IC50 hMAO-B.
[6] abbreviates: Table 2, mean ± S.E.M., n = 3, control assays, read-out: IC50 hCOX-1.
Where [7] appears, read: Table 2, mean ± S.E.M., n = 3, rational assays selected by the modeling, read-out: IC50 hMAO-B.
Where [8] appears, read: highest concentration tested 100 μM, read-out: IC50 hMAO-B (rounded).

SMILES strings stand for the structures. Like-named read-outs stand apart in the source and are kept apart here. Some results are limits rather than exact numbers.

T1 sequence (P23219 24-599): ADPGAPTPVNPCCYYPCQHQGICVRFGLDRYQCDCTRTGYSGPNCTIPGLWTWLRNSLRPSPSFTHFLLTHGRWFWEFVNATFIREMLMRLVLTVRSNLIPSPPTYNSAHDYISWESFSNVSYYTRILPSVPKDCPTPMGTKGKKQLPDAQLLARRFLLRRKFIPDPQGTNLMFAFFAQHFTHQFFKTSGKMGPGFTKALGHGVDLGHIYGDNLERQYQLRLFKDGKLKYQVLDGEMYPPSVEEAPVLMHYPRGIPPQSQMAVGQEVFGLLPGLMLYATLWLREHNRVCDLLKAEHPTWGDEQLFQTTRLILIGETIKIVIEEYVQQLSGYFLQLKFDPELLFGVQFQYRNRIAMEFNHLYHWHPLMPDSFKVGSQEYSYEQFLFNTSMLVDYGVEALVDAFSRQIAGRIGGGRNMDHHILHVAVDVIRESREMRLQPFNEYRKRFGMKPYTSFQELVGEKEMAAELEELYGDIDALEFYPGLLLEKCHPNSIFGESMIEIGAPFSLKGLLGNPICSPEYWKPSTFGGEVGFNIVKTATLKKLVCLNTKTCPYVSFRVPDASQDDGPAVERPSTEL

A word on the IC50: it is the concentration at which inhibition is half-maximal. Regarding `Cc1cccc(-c2n[nH]cc2-c2ccc3ncccc3n2)n1` [GW786460X], the concentration for half-maximal inhibition (IC50) on hCOX-1 (setting [3]), on hCOX-1 (setting [4]) and at hMAO-B [1] (setting [5]) was more than 100 µM each time.

With `COc1ccc(-c2nc(C(=O)N3CCN(C)CC3)sc2-c2ccc(OC)cc2)cc1` [FR122047], the 50% inhibitory concentration (IC50) on hCOX-1 (setting [6]) and on hCOX-1 (setting [3]) was 0.094 ± 0.006 µM in each case.

In general, inhibition refers to the change of the read-out against control, counted positive when it falls. As for `O=Nc1c(-c2c(O)[nH]c3ccccc23)[nH]c2ccccc12` [Indirubin-3′-monoxime, indirubin-3′-monoxime], the inhibition at 25 µM at hCOX-1 is 28%. Moreover, the IC50 at hMAO-B [1] (setting [5]) is more than 100 µM.

In general, Ki refers to the dissociation constant of the complex between target and ligand, obtained from inhibition or displacement. As for `NS(=O)(=O)Cc1noc2ccccc12` [zonisamide], the IC50 in the experiment on hMAO-B [2] (read-out: IC50 of zonisamide (MAO-B)) is approximately 25 µM. Also, the inhibitory constant (Ki) at hMAO-B [2] (read-out: Ki of zonisamide (MAO-B)) was 3.1 µM.

`Oc1ccc(-c2nc(-c3ccncc3)c(-c3ccc(F)cc3)[nH]2)cc1` [SB-202190]: the concentration for half-maximal inhibition (IC50) at hCOX-1 (setting [3]) was 23.6 ± 3.53 µM; on hCOX-1 (setting [4]) it was 24 µM; on hMAO-B [1] (setting [5]) it was more than 100 µM.

Turning to `COc1cc(/C=C/C(=O)N2CCC=CC2=O)cc(OC)c1OC` [Piperlongumine, piperlongumine], the IC50 was more than 100 µM on hCOX-1, 65.1 ± 2.99 µM on hMAO-B [1] (setting [7]), 65 µM at hMAO-B [1] (setting [8]) and more than 100 µM against hMAO-A.

For `COc1ccc2nc(NC(=O)Nc3ccccc3)sc2c1` [Frentizole], the IC50 is more than 100 µM on hCOX-1 (setting [6]); more than 100 µM on hMAO-B [1] (setting [7]); more than 100 µM on hMAO-B [1] (setting [8]); more than 100 µM at hMAO-A (Table 2, mean ± S.E.M., n = 3, control assays, read-out: IC50 hMAO-A).

With `O=C1NC(=O)C(c2c[nH]c3ccccc23)=C1c1c[nH]c2ccccc12` [RO-316233], the 50% inhibitory concentration (IC50) on hCOX-1 (setting [3]) was 25.4 ± 3.8 µM; at hCOX-1 (setting [4]), 25 µM; on hMAO-B [1] (setting [5]), more than 100 µM.

Turning to `CS(=O)(=O)CCNCc1ccc(-c2ccc3ncnc(Nc4ccc(OCc5cccc(F)c5)c(Cl)c4)c3c2)o1` [Lapatinib, lapatinib], the inhibition at 25 µM on hCOX-1 came to 19.5%. For the same molecule, the IC50 at hMAO-B [1] (setting [5]) is more than 100 µM.

Values taken from article PMC5109486, “Computational Drug Target Screening through Protein Interaction Profiles” (Scientific Reports, 2016).
